This note sets out measurements from US10350199B2, “3-(1h-pyrrolo[2,3-b]pyridin-2-yl)-1h-indazoles and therapeutic uses thereof” (Samumed, LLC, priority 2015, dated 2019).

Common to all, as to assay type: cell-based
For assay [1], the system named is IL-6 (THP-1 human monocyte cell line). Description: IL-6 inhibition in LPS-stimulated THP-1 cells (HTRF). Particulars: for EC50: IL-6 inhibition, LPS-stimulated THP-1 cells, HTRF; for inhibition at 10 µM: THP-1, read-out: percentage in parentheses beside EC50 >10 (IL-6 inhibition). The protocol: THP-1 cells were cultured in basal media with 1% FBS for 24 hours before the start of the assay. […] THP-1 cells were plated at 5000 cells/well in the 384-well plates and incubated at 37° C. for 2 h. 500 ng/mL of LPS was added after 2 hours and cells were incubated for another 22 hours at 37° C. Plates were spun in a centrifuge for 1 minute at […] and a mixture of anti-IL6 XL665, and anti-IL6 Cryptate diluted in reconstitution buffer (Cisbio Inc.) was added to each well. Following incubation for 3 hrs at room temperature, Homogeneous Time-Resolved Fluorescence (HTRF) was measured using the Envision (Perkin Elmer) at 665 nm and […]. The ratio of fluorescence at 665 nm to 620 nm was used as a readout for IL6 quantification. All samples were processed in duplicate. Readings were normalized to DMSO treated cells and normalized activities were utilized for EC50 calculations using the dose-response log (inhibitor) vs. response -variable slope (four parameters) nonlinear regression feature available in GraphPad Prism 5.0 (or Dotmatics).

In another assay the test system is SW480 colon cancer cells. The experiment in a line: Cell viability assay (CellTiter-Blue), SW480 cells, four days. Particulars: Homo sapiens; for EC50: 96 h, SW480 cell viability, four days, CellTiter-Blue; for inhibition at 10 µM: SW480, read-out: percent inhibition at 10 μM. The protocol: Representative compounds were screened using the following assay procedure to assess the effect on cell viability as described below.
Approximately 2×10^3 SW480 colon cancer cells were seeded into each well and allowed to incubate in the presence or absence of compound for four days at 37° C./5% CO2. Eight replicates of DMSO-treated cells served as controls and cells treated with compound were performed in duplicate.
After incubation, 20 μL of CellTiter-Blue (Promega) was added to each well allowed to incubate for approximately 3 hours. This reagent was a buffered solution which contains resazurin, metabolically active cells were able to reduce rezarurin (blue) into resorufin (pink) which was highly fluorescent. This measured fluorescence was used as a readout for cell viability.

The subject of assay [2] is primary human fibroblasts derived from IPF patients (LL29 cells) treated with TGF-β1. The experiment in a line: Inhibition of the fibrotic process: αSMA staining in TGF-β1 treated LL29 fibroblasts. Particulars: Fibroblast; for EC50: 96 h, LL29 cells, TGF-β1 20 ng/mL, 4 days, % αSMA positive cells; for inhibition at 10 µM: read-out: percent inhibition at 10 μM. The protocol:
Representative compounds were screened using primary human fibroblasts (derived from IPF patients) treated with TGF-β1 to determine their ability to inhibit the fibrotic process.
LL29 cells are plated at 1,500 cells/well in 80 μL/well F12 medium supplemented with 1% Fetal Bovine Serum. […] Wells treated with TGF-β1 and containing DMSO were used as controls. […] Following incubation for 4 days, SYTOX green nucleic acid stain (Life Technologies [Thermo Fisher Scientific]) was added to the wells at a final concentration of 1 μM and incubated at room temperature for 30 min.

For assay [3], the system named is Wnt activity (Sp5-Luc reporter, SW480 colon carcinoma cells). The experiment in a line: Wnt activity screening assay, Sp5-Luc reporter gene in SW480 cells. Particulars: Homo sapiens; for inhibition at 10 µM: SW480, read-out: percent inhibition at 10 μM; for EC50: Sp5-Luc reporter, SW480 cells, overnight incubation. The source says: The screening assay for Wnt activity is described as follows. Reporter cell lines can be generated by stably transducing cancer cell lines (e.g., colon cancer) or primary cells (e.g., IEC-6 intestinal cells) with a lentiviral construct that includes a Wnt-responsive promoter driving expression of the firefly luciferase gene.
SW480 colon carcinoma cells were transduced with a lentiviral vector expressing luciferase with a human Sp5 promoter consisting of a sequence of eight TCF/LEF binding sites. SW480 cells stably expressing the Sp5-Luc reporter gene and a hygromycin resistance gene were selected by treatment with 150 μg/mL of hygromycin for 7 days. These stably transduced SW480 cells were expanded in cell culture and used for all further screening activities. […] For Sp5-Luc reporter gene assays, the cells were plated at 4,000 cells/well in 384-well plates with medium containing 1% fetal bovine serum and incubated overnight at 37° C. and 5% CO2. Following incubation, 20 μl of BrightGlo luminescence reagent (Promega) was added to each well of the 384-well assay plates. The plates were placed on an orbital shaker for 2 min and then luminescence was quantified using the Envision (Perkin Elmer) plate reader. Readings were normalized to DMSO only treated cells, and normalized activities were utilized for EC50 calculations using the dose-response log (inhibitor) vs. response -variable slope (four parameters) nonlinear regression feature available in GraphPad Prism 5.0 (or Dotmatics).

As to `CC(C)(C)CC(=O)Nc1cncc(-c2ccc3[nH]nc(-c4cc5c(-c6ccccc6F)ccnc5[nH]4)c3c2)c1` [Compound 72, N-(5-(3-(4-(2-Fluorophenyl)-1H-pyrrolo[2,3-b]pyridin-2-yl)-1H-indazol-5-yl)pyridin-3-yl)-3,3-dimethylbutanamide], the EC50 (in assay [1]; with SW480 colon cancer cells; in assay [2]; in assay [3]) was more than 10 µM each time. The inhibition at 10 µM in assay [1] stood at 10.5%; in the assay with SW480 colon cancer cells it was 12.6%; in assay [2] it was 5.4%; in assay [3], 9.3%.
Consider `CCCCC(=O)Nc1cncc(-c2ccc3[nH]nc(-c4cc5c(-c6ccccc6F)ccnc5[nH]4)c3c2)c1` [Compound 75, N-(5-(3-(4-(2-Fluorophenyl)-1H-pyrrolo[2,3-b]pyridin-2-yl)-1H-indazol-5-yl)pyridin-3-yl)pentanamide], for which the EC50 (in assay [1]; in the assay on SW480 colon cancer cells; in assay [2]; in assay [3]) was more than 10 µM each time. For the same compound, the inhibition at 10 µM in assay [1] is 38.2%; in the assay with SW480 colon cancer cells, 16.8%; in assay [2], 29.1%; in assay [3], 13%.
As to `O=C(Nc1cncc(-c2ccc3[nH]nc(-c4cc5c(-c6ccccc6F)ccnc5[nH]4)c3c2)c1)C1CCCC1` [Compound 78, N-(5-(3-(4-(2-Fluorophenyl)-1H-pyrrolo[2,3-b]pyridin-2-yl)-1H-indazol-5-yl)pyridin-3-yl)cyclopentanecarboxamide], the EC50 (in assay [1]; in the assay with SW480 colon cancer cells; in assay [2]; in assay [3]) was more than 10 µM in each case. Further, the inhibition at 10 µM in assay [1] worked out at 39.9%; in the assay with SW480 colon cancer cells, 14.4%; in assay [2] it was 39%; in assay [3], 1.9%.
Consider `O=C(Cc1ccccc1)Nc1cncc(-c2ccc3[nH]nc(-c4cc5c(-c6ccncc6)ccnc5[nH]4)c3c2)c1` [Compound 122, 2-Phenyl-N-(5-(3-(4-(pyridin-4-yl)-1H-pyrrolo[2,3-b]pyridin-2-yl)-1H-indazol-5-yl)pyridin-3-yl)acetamide], for which the EC50 was more than 10 µM in assay [1], 1.95 µM in the assay with SW480 colon cancer cells, 6.18 µM in assay [2] and more than 10 µM in assay [3]. In addition, the results for the inhibition at 10 µM in assay [1] and in assay [3] were 47.3% and 28.3%, respectively.
With `CCC(=O)Nc1cncc(-c2ccc3[nH]nc(-c4cc5c(-c6ccccn6)ccnc5[nH]4)c3c2)c1` [Compound 141, N-(5-(3-(4-(Pyridin-2-yl)-1H-pyrrolo[2,3-b]pyridin-2-yl)-1H-indazol-5-yl)pyridin-3-yl)propionamide], the EC50 in assay [1] was more than 10 µM; in the assay on SW480 colon cancer cells, 6.07 µM; in assay [2], 1.66 µM; in assay [3], 0.238 µM. Further, the inhibition at 10 µM in assay [1] stood at 30.3%.
Turning to `O=C(Nc1cncc(-c2ccc3[nH]nc(-c4cc5c(-c6ccccn6)ccnc5[nH]4)c3c2)c1)C1CCCCC1` [Compound 163, N-(5-(3-(4-(Pyridin-2-yl)-1H-pyrrolo[2,3-b]pyridin-2-yl)-1H-indazol-5-yl)pyridin-3-yl)cyclohexanecarboxamide], the EC50 in assay [1] is 1.54 µM; with SW480 colon cancer cells, more than 10 µM; in assay [2], more than 10 µM; in assay [3] it was more than 10 µM. Moreover, the values for the inhibition at 10 µM (in the assay with SW480 colon cancer cells; in assay [2]; in assay [3]) were 11.1%, 0% and 38.8%, respectively.
As to `CCC(=O)Nc1cncc(-c2ccc3[nH]nc(-c4cc5c(N6CCCCC6)ccnc5[nH]4)c3c2)c1` [Compound 169, N-(5-(3-(4-(Piperidin-1-yl)-1H-pyrrolo[2,3-b]pyridin-2-yl)-1H-indazol-5-yl)pyridin-3-yl)propionamide], the EC50 in assay [1] was more than 10 µM; with SW480 colon cancer cells, more than 10 µM; in assay [2], more than 10 µM; in assay [3], 1.22 µM. The inhibition at 10 µM was determined as 33% in assay [1], 38.1% in the assay with SW480 colon cancer cells and 11.6% in assay [2].
`CN(C)c1cncc(-c2ccc3[nH]nc(-c4cc5c(N6CCCCC6)ccnc5[nH]4)c3c2)c1` [Compound 175, N,N-Dimethyl-5-(3-(4-(piperidin-1-yl)-1H-pyrrolo[2,3-b]pyridin-2-yl)-1H-indazol-5-yl)pyridin-3-amine]: the EC50 (in assay [1]; in the assay on SW480 colon cancer cells; in assay [2]; in assay [3]) was more than 10 µM in each case. The inhibition at 10 µM in assay [1] was found to be 15.2%; in the assay on SW480 colon cancer cells it was 13.1%; in assay [2], 11.3%; in assay [3], 10.7%.
Turning to `O=C(Cc1ccccc1)Nc1cncc(-c2ccc3[nH]nc(-c4cc5c(N6CCCCC6)ccnc5[nH]4)c3c2)c1` [Compound 178, 2-Phenyl-N-(5-(3-(4-(piperidin-1-yl)-1H-pyrrolo[2,3-b]pyridin-2-yl)-1H-indazol-5-yl)pyridin-3-yl)acetamide], the concentration giving a half-maximal response (EC50) (in assay [1]; with SW480 colon cancer cells; in assay [2]; in assay [3]) was more than 10 µM each time. For the same compound, the inhibition at 10 µM in assay [1] amounted to 36.5%; with SW480 colon cancer cells it was 18.7%; in assay [2] it was 0%; in assay [3], 13.8%.
On to `CN(C)Cc1cncc(-c2ccc3[nH]nc(-c4cc5c(N6CCCCC6)ccnc5[nH]4)c3c2)c1` [Compound 181, N,N-Dimethyl-1-(5-(3-(4-(piperidin-1-yl)-1H-pyrrolo[2,3-b]pyridin-2-yl)-1H-indazol-5-yl)pyridin-3-yl)methanamine], for which the EC50 (in assay [1]; in the assay with SW480 colon cancer cells; in assay [2]; in assay [3]) was more than 10 µM throughout. Moreover, the inhibition at 10 µM in assay [1] was 29%; in the assay with SW480 colon cancer cells it was 17.6%; in assay [2], 9.1%; in assay [3], 26.2%.
On to `CC(C)(C)CC(=O)Nc1cncc(-c2ccc3[nH]nc(-c4cc5c(N6CCCCC6)ccnc5[nH]4)c3c2)c1` [Compound 184, 3,3-Dimethyl-N-(5-(3-(4-(piperidin-1-yl)-1H-pyrrolo[2,3-b]pyridin-2-yl)-1H-indazol-5-yl)pyridin-3-yl)butanamide], for which the EC50 is 3.99 µM in assay [1], more than 10 µM in the assay with SW480 colon cancer cells, more than 10 µM in assay [2] and more than 10 µM in assay [3]. For the same compound, the inhibition at 10 µM in the assay with SW480 colon cancer cells stood at 1.6%; in assay [3], 11.9%.
For the compound `O=C(Nc1cncc(-c2ccc3[nH]nc(-c4cc5c(N6CCCCC6)ccnc5[nH]4)c3c2)c1)C1CC1` [Compound 188, N-(5-(3-(4-(Piperidin-1-yl)-1H-pyrrolo[2,3-b]pyridin-2-yl)-1H-indazol-5-yl)pyridin-3-yl)cyclopropanecarboxamide], the EC50 (in assay [1]; with SW480 colon cancer cells; in assay [2]; in assay [3]) was more than 10 µM in each case. Besides, the inhibition at 10 µM in assay [1] was 4.1%; in the assay with SW480 colon cancer cells it was 12.9%; in assay [2], 17.4%; in assay [3] it was 27.6%.

As a reminder, the EC50 is the concentration giving half of the maximal effect. A low value points to greater potency. As a reminder, the inhibition is how much of the control response was suppressed.
